Test results from the NIST ThermoML archive (doi:10.1021/je301353z).
± gives the expanded uncertainty stated by the source.

Key:
[1] = 101.33 kPa, Liquid; for speed of sound: Sing-around technique in a fixed-path interferometer; for mass density: Vibrating tube method
[2] = molar heat capacity at constant pressure; settings: 101.33 kPa, Liquid, Small sample (50 mg) DSC

Row | Compound | speed of sound ([1]; 293.15 K) [m/s] | mass density ([1]; 293.15 K) [kg/m3] | speed of sound ([1]; 298.15 K) [m/s] | mass density ([1]; 298.15 K) [kg/m3] | speed of sound ([1]; 303.15 K) [m/s] | mass density ([1]; 303.15 K) [kg/m3] | speed of sound ([1]; 308.15 K) [m/s] | mass density ([1]; 308.15 K) [kg/m3] | molar heat capacity at constant pressure ([2]; 293.15 K) [J/K/mol] | molar heat capacity at constant pressure ([2]; 298.15 K) [J/K/mol] | molar heat capacity at constant pressure ([2]; 303.15 K) [J/K/mol] | molar heat capacity at constant pressure ([2]; 308.15 K) [J/K/mol]
1 | CCn1cc[n+](C)c1.F[B-](F)(F)F [1-ethyl-3-methylimidazolium tetrafluoroborate] | 1631 ± 2.1 | 1283.89 ± 1.7 | 1619.4 ± 2.1 | 1279.91 ± 1.7 | 1607.6 ± 2.1 | 1276.26 ± 1.7 | 1596.3 ± 2.1 | 1272.07 ± 1.7 | 303.41 ± 4.7 | 305.12 ± 4.7 | 306.81 ± 4.8 | 308.58 ± 4.8
2 | O=C1CCCN1 [2-pyrrolidinone] | 1650.1 ± 1.3 | 1111.28 ± 1 | 1633.9 ± 1.3 | 1107.15 ± 1 | 1617.1 ± 1.3 | 1103.02 ± 1 | 1601.8 ± 1.3 | 1098.9 ± 1 | 168.36 ± 2.6 | 169.55 ± 2.6 | 171.18 ± 2.6 | 172.37 ± 2.7
3 | CN1CCCC1=O [N-methylpyrrolidone] | 1565.5 ± 1.3 | 1033.23 ± 1 | 1546 ± 1.2 | 1028.23 ± 1 | 1527.2 ± 1.2 | 1023.46 ± 1 | 1507.4 ± 1.2 | 1018.66 ± 1 | 165.44 ± 2.6 | 166.22 ± 2.6 | 166.92 ± 2.6 | 167.21 ± 2.6
4 | c1ccncc1 [pyridine] | 1442 ± 1.2 | 983.195 ± 1 | 1417.8 ± 1.2 | 978.252 ± 1 | 1398 ± 1.2 | 973.228 ± 1 | 1377.1 ± 1.2 | 968.171 ± 1 | 130.49 ± 2 | 131.74 ± 2 | 132.71 ± 2.1 | 133.82 ± 2.1
